Results reported in PubChem BioAssay AID248 (DTP/NCI, 2004).
Values joined by “and” are separate entries in the source; they are usually repeats but may differ in a detail not shown here. Equal entries are not always repeated. Inconclusive results and toxic doses are left out. Rule as the data show it: active = T/C of 150% or more; inactive = T/C below 125%.

Test system: L1210 leukemia ip in BDF1 mice, survival T/C
Test: NCI In Vivo Anticancer Drug Screen. Data for tumor model L1210 Leukemia (intraperitoneal) in B6D2F1 (BDF1) mice
Conditions: endpoint: mean survival time, higher = longer survival
Procedure, shortened: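 Tumor was transplanted into mice, which were then dosed with test compound or vehicle alone. Survival was recorded for each group, and the treated figure was expressed relative to the control figure.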

[1] = dose: 100.0 mg/kg/injection, schedule: Q01DX009 (ip), vehicle: Klucel (hydroxypropylcellulose) (HPC)
[2] = dose: 200.0 mg/kg/injection, schedule: Q01DX009 (ip), vehicle: Klucel (hydroxypropylcellulose) (HPC)
[3] = dose: 100.0 mg/kg/injection, schedule: Q01DX009 (ip), vehicle: saline with Tween-80
[4] = dose: 200.0 mg/kg/injection, schedule: Q01DX009 (ip), vehicle: saline with Tween-80
[5] = dose: 400.0 mg/kg/injection, schedule: Q01DX009 (ip), vehicle: saline with Tween-80
[6] = dose: 100.0 mg/kg/injection, schedule: Q04DX003 (ip), vehicle: saline with Tween-80
[7] = dose: 200.0 mg/kg/injection, schedule: Q04DX003 (ip), vehicle: saline with Tween-80
[8] = dose: 400.0 mg/kg/injection, schedule: Q04DX003 (ip), vehicle: saline with Tween-80
[9] = dose: 50.0 mg/kg/injection, schedule: Q01DX001 (ip), vehicle: carboxymethylcellulose (CMC)
[10] = dose: 100.0 mg/kg/injection, schedule: Q01DX001 (ip), vehicle: carboxymethylcellulose (CMC)
[11] = dose: 200.0 mg/kg/injection, schedule: Q01DX001 (ip), vehicle: carboxymethylcellulose (CMC)
[12] = dose: 400.0 mg/kg/injection, schedule: Q01DX001 (ip), vehicle: carboxymethylcellulose (CMC)

Measured: T/C

CCCCCCCCCCCCCCCCN1CCCN(CCCCCCCCCCCCCCCC)CC1
inactive: dose: 25.0 mg/kg/injection, schedule: Q01DX009 (ip), vehicle: saline 107 % of control and 113 % of control | dose: 50.0 mg/kg/injection, schedule: Q01DX009 (ip), vehicle: saline 95 % of control and 100 % of control | dose: 100.0 mg/kg/injection, schedule: Q01DX009 (ip), vehicle: saline 94 % of control and 102 % of control | dose: 200.0 mg/kg/injection, schedule: Q01DX009 (ip), vehicle: saline 91 % of control

CN(N=O)C(=O)NC(N)=O
inactive: dose: 1.5 mg/kg/injection, schedule: Q01DX009 (ip), vehicle: saline 110 % of control | dose: 1.87 mg/kg/injection, schedule: Q01DX Z (ip), vehicle: carboxymethylcellulose (CMC) 115 % of control | dose: 30.0 mg/kg/injection, schedule: Q01DX Z (ip), vehicle: carboxymethylcellulose (CMC) 110 % of control | dose: 40.0 mg/kg/injection, schedule: Q01DX Z (ip), vehicle: carboxymethylcellulose (CMC) 91 % of control | dose: 50.0 mg/kg/injection, schedule: Q01DX Z (ip), vehicle: saline 122 % of control | dose: 75.0 mg/kg/injection, schedule: Q01DX Z (ip), vehicle: saline 112 % of control | dose: 100.0 mg/kg/injection, schedule: Q01DX Z (ip), vehicle: saline 92 % of control
active: dose: 10.0 mg/kg/injection, schedule: Q01DX Z (ip), vehicle: carboxymethylcellulose (CMC) 188 % of control | dose: 15.0 mg/kg/injection, schedule: Q01DX Z (ip), vehicle: carboxymethylcellulose (CMC) 177 % of control

O=C(OCCBr)c1ccc([N+](=O)[O-])cc1
inactive: dose: 50.0 mg/kg/injection, schedule: Q01DX009 (ip), vehicle: Klucel (hydroxypropylcellulose) (HPC) 100 % of control | [1] 106 % of control | [2] 97 % of control

Cc1ccc(CCCC(CC(=O)O)C(=O)O)cc1 (stereo not drawn)
inactive: dose: 12.5 mg/kg/injection, schedule: Q01DX001 (ip), vehicle: saline with Tween-80 100 % of control | dose: 25.0 mg/kg/injection, schedule: Q01DX001 (ip), vehicle: saline with Tween-80 98 % of control | dose: 50.0 mg/kg/injection, schedule: Q01DX001 (ip), vehicle: saline with Tween-80 88 % of control

CCCCCCCCCCCCCCCC[N+](C)=C(SC)c1ccccc1OC
inactive: dose: 0.7 mg/kg/injection, schedule: Q01DX009 (ip), vehicle: Klucel (hydroxypropylcellulose) (HPC) 101 % of control | dose: 1.5 mg/kg/injection, schedule: Q01DX009 (ip), vehicle: Klucel (hydroxypropylcellulose) (HPC) 104 % of control | dose: 1.5 mg/kg/injection, schedule: Q04DX003 (ip), vehicle: Klucel (hydroxypropylcellulose) (HPC) 95 % of control | dose: 3.0 mg/kg/injection, schedule: Q01DX009 (ip), vehicle: Klucel (hydroxypropylcellulose) (HPC) 104 % of control | dose: 3.0 mg/kg/injection, schedule: Q04DX003 (ip), vehicle: Klucel (hydroxypropylcellulose) (HPC) 97 % of control

Nc1n[nH]c(=S)s1
inactive: dose: 46.0 mg/kg/injection, schedule: Q03HX032 (ip), vehicle: Klucel (hydroxypropylcellulose) (HPC) 102 % of control | dose: 70.0 mg/kg/injection, schedule: Q03HX032 (ip), vehicle: Klucel (hydroxypropylcellulose) (HPC) 105 % of control | [1] 95 % of control | dose: 105.0 mg/kg/injection, schedule: Q03HX032 (ip), vehicle: Klucel (hydroxypropylcellulose) (HPC) 108 % of control | dose: 158.0 mg/kg/injection, schedule: Q03HX032 (ip), vehicle: Klucel (hydroxypropylcellulose) (HPC) 106 % of control | dose: 183.0 mg/kg/injection, schedule: Q01DX015 (ip), vehicle: Klucel (hydroxypropylcellulose) (HPC) 108 % of control | [2] 117 % of control | dose: 236.0 mg/kg/injection, schedule: Q03HX032 (ip), vehicle: Klucel (hydroxypropylcellulose) (HPC) 114 % of control | dose: 264.0 mg/kg/injection, schedule: Q01DX015 (ip), vehicle: Klucel (hydroxypropylcellulose) (HPC) 115 % of control | dose: 394.0 mg/kg/injection, schedule: Q01DX015 (ip), vehicle: Klucel (hydroxypropylcellulose) (HPC) 116 % of control | dose: 440.0 mg/kg/injection, schedule: Q01DX001 (ip), vehicle: Klucel (hydroxypropylcellulose) (HPC) 101 % of control | dose: 670.0 mg/kg/injection, schedule: Q01DX001 (ip), vehicle: Klucel (hydroxypropylcellulose) (HPC) 94 % of control

O=C(Nc1cccc(F)c1)Nc1cc(C(F)(F)F)ccc1Cl
inactive: dose: 50.0 mg/kg/injection, schedule: Q01DX009 (ip), vehicle: saline with Tween-80 96 % of control | [3] 95 % of control and 97 % of control | [4] 96 % of control | [5] 88 % of control

C=C(Cl)CSCCS
inactive: [6] 95 % of control | [7] 106 % of control

c1ccc(-c2oc(-c3ccccc3)c(-c3ccccc3)c2-c2ccccc2)cc1
inactive: [6] 93 % of control | [8] 93 % of control

O=c1c(N=Nc2ccc(Cl)cc2)c(O)n(-c2ccccc2)c(=S)n1-c1ccccc1
inactive: dose: 37.5 mg/kg/injection, schedule: Q01DX001 (ip), vehicle: other 94 % of control | dose: 75.0 mg/kg/injection, schedule: Q01DX001 (ip), vehicle: other 107 % of control | dose: 150.0 mg/kg/injection, schedule: Q01DX001 (ip), vehicle: other 96 % of control

CCN(CC)CCCC#N
inactive: dose: 50.0 mg/kg/injection, schedule: Q01DX001 (ip), vehicle: saline 100 % of control | dose: 100.0 mg/kg/injection, schedule: Q01DX001 (ip), vehicle: saline 105 % of control | dose: 200.0 mg/kg/injection, schedule: Q01DX001 (ip), vehicle: saline 102 % of control

CCSC(C(OC(C)=O)C(OC(C)=O)C(OC(C)=O)C(COC(C)=O)OC(C)=O)n1cc(C)c(=O)[nH]c1=O (stereo not drawn)
inactive: [9] 100 % of control and 97 % of control | [10] 97 % of control and 94 % of control | [11] 100 % of control | [12] 100 % of control and 103 % of control

O=S1(=O)CC(CBr)=C(CBr)C1
inactive: dose: 15.0 mg/kg/injection, schedule: Q01DX001 (ip), vehicle: carboxymethylcellulose (CMC) 94 % of control | dose: 30.0 mg/kg/injection, schedule: Q01DX001 (ip), vehicle: carboxymethylcellulose (CMC) 93 % of control | dose: 60.0 mg/kg/injection, schedule: Q01DX001 (ip), vehicle: carboxymethylcellulose (CMC) 100 % of control

CCC(=O)OC1(c2ccccc2)CCN(CC2CC2)CC1C (stereo not drawn)
inactive: dose: 20.0 mg/kg/injection, schedule: Q04DX003 (ip), vehicle: saline 105 % of control | dose: 40.0 mg/kg/injection, schedule: Q04DX003 (ip), vehicle: saline 111 % of control | dose: 80.0 mg/kg/injection, schedule: Q04DX003 (ip), vehicle: saline 91 % of control

CS(=O)(=O)OCCC(=O)NCNC(=O)CCOS(C)(=O)=O
inactive: dose: 10.6 mg/kg/injection, schedule: Q01DX Z (ip), vehicle: carboxymethylcellulose (CMC) 117 % of control and 120 % of control | dose: 16.0 mg/kg/injection, schedule: Q01DX Z (ip), vehicle: carboxymethylcellulose (CMC) 109 % of control | dose: 18.8 mg/kg/injection, schedule: Q01DX Z (ip), vehicle: carboxymethylcellulose (CMC) 124 % of control | dose: 24.0 mg/kg/injection, schedule: Q01DX Z (ip), vehicle: carboxymethylcellulose (CMC) 123 % of control | dose: 28.0 mg/kg/injection, schedule: Q01DX Z (ip), vehicle: carboxymethylcellulose (CMC) 124 % of control | dose: 54.0 mg/kg/injection, schedule: Q01DX Z (ip), vehicle: carboxymethylcellulose (CMC) 122 % of control | dose: 81.0 mg/kg/injection, schedule: Q01DX Z (ip), vehicle: carboxymethylcellulose (CMC) 117 % of control | dose: 84.0 mg/kg/injection, schedule: Q01DX Z (ip), vehicle: carboxymethylcellulose (CMC) 109 % of control | dose: 90.0 mg/kg/injection, schedule: Q01DX Z (ip), vehicle: carboxymethylcellulose (CMC) 121 % of control | dose: 95.0 mg/kg/injection, schedule: Q01DX Z (ip), vehicle: carboxymethylcellulose (CMC) 119 % of control

O=C(CC(O)(C(F)(F)F)C(F)(F)F)c1ccc(F)cc1
inactive: [6] 94 % of control | [7] 92 % of control | [8] 103 % of control

CC(=O)Nc1ncc(Oc2ccc(Cl)cc2Cl)c(=O)[nH]1
inactive: [9] 102 % of control | [10] 119 % of control | [11] 96 % of control | [12] 102 % of control

Cc1ccc(Cl)cc1NC(=O)COc1ccc(Cl)cc1Cl
inactive: [3] 96 % of control | [6] 107 % of control | [4] 93 % of control | [7] 93 % of control | [5] 93 % of control | [8] 98 % of control
